Experimental data as given in article PMC5522529, “Mechanisms of Paradoxical Activation of AMPK by the Kinase Inhibitors SU6656 and Sorafenib” (Cell Chemical Biology, 2017).

Target: T1, α2β2γ1 complex (Homo sapiens, UniProt P54619+P54646)
T1 construct: bacterially expressed α2-KD or a full-length α2β2γ1 complex, both of which had been phosphorylated using CaMKK2; made in house; host or cells: bacteria
Test: Inactivation of full-length α2β2γ1 complex by PP2Cα
Type: biochemical
Conditions: 5 mM ATP, AMP 2 mM, SU6656 up to 10 μM

T1 sequence (P54646 whole entry): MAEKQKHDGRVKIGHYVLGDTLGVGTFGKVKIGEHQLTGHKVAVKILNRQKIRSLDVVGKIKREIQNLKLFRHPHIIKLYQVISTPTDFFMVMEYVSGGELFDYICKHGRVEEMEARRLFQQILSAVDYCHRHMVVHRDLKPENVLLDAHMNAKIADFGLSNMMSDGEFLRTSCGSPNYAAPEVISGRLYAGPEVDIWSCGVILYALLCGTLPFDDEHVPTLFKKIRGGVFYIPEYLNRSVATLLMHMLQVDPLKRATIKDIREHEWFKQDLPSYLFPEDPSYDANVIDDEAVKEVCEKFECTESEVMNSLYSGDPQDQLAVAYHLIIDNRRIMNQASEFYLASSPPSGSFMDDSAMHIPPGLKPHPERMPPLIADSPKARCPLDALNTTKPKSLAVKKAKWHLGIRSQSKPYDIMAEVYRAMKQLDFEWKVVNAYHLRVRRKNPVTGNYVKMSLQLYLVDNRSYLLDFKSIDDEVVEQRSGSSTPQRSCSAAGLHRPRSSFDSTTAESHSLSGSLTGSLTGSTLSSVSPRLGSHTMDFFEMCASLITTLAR
T1 sequence (O43741 whole entry partner): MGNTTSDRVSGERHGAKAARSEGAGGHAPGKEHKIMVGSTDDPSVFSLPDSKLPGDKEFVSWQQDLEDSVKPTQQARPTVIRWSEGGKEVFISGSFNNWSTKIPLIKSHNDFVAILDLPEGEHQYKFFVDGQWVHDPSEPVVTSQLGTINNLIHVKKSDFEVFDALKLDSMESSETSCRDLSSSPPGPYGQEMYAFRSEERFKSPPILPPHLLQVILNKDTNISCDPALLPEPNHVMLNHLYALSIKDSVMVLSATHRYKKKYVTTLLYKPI
T1 sequence (P54619 whole entry): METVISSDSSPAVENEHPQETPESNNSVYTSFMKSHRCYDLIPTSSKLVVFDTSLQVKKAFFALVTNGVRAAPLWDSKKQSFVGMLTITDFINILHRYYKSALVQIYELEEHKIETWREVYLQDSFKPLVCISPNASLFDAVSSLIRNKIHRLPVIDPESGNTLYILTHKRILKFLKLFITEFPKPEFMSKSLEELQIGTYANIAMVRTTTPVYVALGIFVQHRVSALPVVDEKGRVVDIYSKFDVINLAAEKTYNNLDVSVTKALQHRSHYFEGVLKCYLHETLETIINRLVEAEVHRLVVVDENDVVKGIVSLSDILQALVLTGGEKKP

protection against inactivation by PP2Cα: did not protect against inactivation
Compound: CN(C)S(=O)(=O)c1ccc2c(c1)/C(=C/c1cc3c([nH]1)CCCC3)C(=O)N2 [SU6656]
